{
  "source": "ChEMBL document CHEMBL1201862",
  "about": "“PubChem BioAssay data set” (2004)",
  "key": {"[1]": {"target": "T1, Estrogen receptor beta (Homo sapiens, UniProt Q92731)", "T1 sequence (Q92731 whole entry)": "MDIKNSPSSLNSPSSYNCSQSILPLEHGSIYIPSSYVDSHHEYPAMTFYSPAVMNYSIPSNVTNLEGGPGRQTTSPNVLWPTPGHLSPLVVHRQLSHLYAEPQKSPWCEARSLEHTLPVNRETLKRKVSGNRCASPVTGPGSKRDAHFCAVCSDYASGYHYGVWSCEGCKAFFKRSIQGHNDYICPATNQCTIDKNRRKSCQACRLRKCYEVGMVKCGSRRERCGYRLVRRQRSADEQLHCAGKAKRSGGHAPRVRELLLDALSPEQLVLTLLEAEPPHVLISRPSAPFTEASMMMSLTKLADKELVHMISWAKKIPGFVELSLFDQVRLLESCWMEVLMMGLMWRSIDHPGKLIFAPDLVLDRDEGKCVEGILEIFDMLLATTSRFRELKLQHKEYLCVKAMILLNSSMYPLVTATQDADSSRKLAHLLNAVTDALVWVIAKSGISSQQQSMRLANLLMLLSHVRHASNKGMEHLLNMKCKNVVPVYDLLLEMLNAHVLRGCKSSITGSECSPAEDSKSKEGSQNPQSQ"}, "[2]": {"target": "T1, Estrogen receptor beta", "assay": "blockers of SRC-3 recruitment to ERβ – biochemical, ELISA, streptavidin-HRP readout, orthogonal assay, confirmation (AID 1060)"}, "[3]": {"assay": "A cytotoxicity screen of small molecule inhibitors of the PhoP region in Salmonella typhi identified in the primary screen. [Related pubchem assays: 1850, 1864, 1985 ]", "type": "functional"}, "[4]": {"target": "T2, Lysosomal acid glucosylceramidase (Homo sapiens, UniProt P04062)", "T2 sequence (P04062 whole entry)": "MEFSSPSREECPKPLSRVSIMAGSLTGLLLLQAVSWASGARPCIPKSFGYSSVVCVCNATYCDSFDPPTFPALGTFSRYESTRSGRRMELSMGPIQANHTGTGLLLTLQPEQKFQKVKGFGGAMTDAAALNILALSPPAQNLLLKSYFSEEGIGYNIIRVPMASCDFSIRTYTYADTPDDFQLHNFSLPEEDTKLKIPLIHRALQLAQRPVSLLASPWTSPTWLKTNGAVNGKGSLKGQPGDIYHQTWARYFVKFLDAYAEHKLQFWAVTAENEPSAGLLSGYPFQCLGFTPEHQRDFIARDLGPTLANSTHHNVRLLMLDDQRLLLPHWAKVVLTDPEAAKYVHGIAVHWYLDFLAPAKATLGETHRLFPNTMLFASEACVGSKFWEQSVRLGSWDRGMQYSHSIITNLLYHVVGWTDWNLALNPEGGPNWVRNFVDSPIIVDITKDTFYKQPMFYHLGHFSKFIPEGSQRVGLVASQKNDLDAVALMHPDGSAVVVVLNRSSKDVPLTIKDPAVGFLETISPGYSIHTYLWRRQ", "assay": "Dose response cell-based high throughput screening assay to identify enhancers of beta-glucosidase activity. [Related pubchem assays: 784 ]", "type": "functional"}, "[5]": {"target": "Dual specificity protein phosphatase 3 (Homo sapiens, UniProt P51452)", "sequence (P51452 whole entry)": "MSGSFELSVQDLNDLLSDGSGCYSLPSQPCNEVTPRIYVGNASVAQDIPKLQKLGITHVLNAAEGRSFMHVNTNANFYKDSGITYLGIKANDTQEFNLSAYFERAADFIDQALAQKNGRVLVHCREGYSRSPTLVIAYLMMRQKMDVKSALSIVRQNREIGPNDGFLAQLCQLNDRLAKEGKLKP", "assay": "inhibition constants for human DUSP3 – biochemical, colorimetric, SAR follow-up (AID 2004)"}, "[6]": {"target": "T3, Scavenger receptor class B member 1 (Mus musculus, UniProt Q61009)", "T3 sequence (Q61009 whole entry)": "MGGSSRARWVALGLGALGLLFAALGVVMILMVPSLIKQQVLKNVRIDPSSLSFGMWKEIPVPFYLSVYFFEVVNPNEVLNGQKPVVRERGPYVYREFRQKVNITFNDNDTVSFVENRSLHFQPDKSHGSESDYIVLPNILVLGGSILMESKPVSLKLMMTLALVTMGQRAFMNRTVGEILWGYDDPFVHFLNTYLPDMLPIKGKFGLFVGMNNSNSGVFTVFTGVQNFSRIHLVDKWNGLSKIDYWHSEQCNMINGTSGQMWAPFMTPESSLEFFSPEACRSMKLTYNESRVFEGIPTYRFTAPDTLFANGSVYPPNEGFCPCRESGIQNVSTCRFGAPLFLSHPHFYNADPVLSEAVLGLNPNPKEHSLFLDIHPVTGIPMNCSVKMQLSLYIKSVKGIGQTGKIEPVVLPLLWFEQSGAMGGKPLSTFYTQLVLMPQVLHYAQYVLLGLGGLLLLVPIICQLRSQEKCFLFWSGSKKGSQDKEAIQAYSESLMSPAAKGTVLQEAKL", "assay": "mouse SR-BI DiI-HDL uptake blockers – ldlA[mSR-BI] cells, fluorescence, cherry pick, dose response (AID 493194);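 further: cellular uptake of fluorescent DiI-labeled HDL measured as cell fluorescence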", "type": "functional, cell-based"}, "[7]": {"target": "Prothrombin (Homo sapiens, UniProt P00734)", "assay": "Thrombin 1536 HTS Dose Response Confirmation. [Related pubchem assays: 1046 (Thrombin 1536 HTS; hits were confirmed in this assay)]", "type": "functional"}, "[8]": {"target": "T4, Mucolipin-3 (Homo sapiens, UniProt Q8TDD5)", "T4 sequence (Q8TDD5 whole entry)": "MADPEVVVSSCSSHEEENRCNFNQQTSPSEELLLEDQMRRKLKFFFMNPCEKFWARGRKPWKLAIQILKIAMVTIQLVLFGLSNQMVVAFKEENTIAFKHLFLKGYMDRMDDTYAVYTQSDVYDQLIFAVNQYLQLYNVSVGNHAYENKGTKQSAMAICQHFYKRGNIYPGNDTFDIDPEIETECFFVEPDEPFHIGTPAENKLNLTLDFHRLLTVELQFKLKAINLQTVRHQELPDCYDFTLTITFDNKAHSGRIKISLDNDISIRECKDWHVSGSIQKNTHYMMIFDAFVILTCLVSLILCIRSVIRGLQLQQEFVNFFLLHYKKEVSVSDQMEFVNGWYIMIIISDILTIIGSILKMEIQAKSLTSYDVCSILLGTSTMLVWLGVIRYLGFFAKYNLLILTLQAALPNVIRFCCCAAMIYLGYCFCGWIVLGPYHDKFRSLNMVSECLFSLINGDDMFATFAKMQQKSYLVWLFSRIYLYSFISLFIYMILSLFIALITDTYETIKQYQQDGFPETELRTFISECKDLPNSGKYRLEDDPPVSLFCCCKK", "assay": "Dose response cell-based high-throughput screening assay for agonists of the transient receptor potential channel ML3 (TRPML3). [Related pubchem assays: 1526, 1424, 1448 ]", "type": "functional"}, "[9]": {"target": "Ion channel NompC (Danio rerio, UniProt Q7T1G6)", "sequence (Q7T1G6 whole entry)": "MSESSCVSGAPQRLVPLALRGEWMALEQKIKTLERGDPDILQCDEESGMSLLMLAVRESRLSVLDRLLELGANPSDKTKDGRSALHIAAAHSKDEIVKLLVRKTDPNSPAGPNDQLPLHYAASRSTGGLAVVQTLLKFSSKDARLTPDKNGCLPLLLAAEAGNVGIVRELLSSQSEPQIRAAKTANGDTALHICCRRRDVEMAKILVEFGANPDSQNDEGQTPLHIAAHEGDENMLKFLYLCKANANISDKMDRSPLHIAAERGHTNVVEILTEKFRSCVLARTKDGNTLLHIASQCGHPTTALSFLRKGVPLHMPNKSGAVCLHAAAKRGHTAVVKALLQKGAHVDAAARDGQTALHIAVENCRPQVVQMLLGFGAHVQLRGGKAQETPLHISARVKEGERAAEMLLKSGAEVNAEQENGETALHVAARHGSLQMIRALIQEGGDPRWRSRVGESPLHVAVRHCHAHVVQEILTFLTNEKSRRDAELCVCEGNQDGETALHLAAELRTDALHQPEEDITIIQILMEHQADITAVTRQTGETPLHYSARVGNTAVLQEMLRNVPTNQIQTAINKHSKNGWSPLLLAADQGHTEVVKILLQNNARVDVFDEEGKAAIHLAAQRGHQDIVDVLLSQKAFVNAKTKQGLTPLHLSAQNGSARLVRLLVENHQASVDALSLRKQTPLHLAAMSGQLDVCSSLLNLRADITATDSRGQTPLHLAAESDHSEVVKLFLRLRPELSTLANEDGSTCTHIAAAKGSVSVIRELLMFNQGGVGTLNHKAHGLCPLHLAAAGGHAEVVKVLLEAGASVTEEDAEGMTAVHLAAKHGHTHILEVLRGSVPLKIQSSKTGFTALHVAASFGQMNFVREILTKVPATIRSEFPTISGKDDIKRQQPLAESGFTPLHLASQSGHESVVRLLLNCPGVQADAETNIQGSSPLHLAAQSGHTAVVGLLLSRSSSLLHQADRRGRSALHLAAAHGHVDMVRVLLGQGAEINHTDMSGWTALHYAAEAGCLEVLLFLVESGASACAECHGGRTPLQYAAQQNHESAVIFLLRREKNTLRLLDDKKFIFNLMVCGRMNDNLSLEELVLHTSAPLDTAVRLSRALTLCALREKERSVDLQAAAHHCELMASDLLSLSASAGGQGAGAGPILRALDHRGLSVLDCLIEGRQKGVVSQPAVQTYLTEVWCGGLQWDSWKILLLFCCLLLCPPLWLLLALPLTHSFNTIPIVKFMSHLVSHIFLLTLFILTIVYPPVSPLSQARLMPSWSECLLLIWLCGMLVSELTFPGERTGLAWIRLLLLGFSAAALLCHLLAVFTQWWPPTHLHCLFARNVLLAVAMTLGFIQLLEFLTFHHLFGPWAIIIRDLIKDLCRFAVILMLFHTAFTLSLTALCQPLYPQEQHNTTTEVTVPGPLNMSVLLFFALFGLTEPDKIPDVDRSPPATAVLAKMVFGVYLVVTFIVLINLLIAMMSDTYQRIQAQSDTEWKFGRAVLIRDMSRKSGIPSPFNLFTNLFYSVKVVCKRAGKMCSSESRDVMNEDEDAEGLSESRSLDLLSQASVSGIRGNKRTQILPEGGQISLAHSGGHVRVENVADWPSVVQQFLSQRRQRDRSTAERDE", "assay": "Fluorescence counterscreen assay for TRPML3 agonists: dose response cell-based high-throughput screening assay to identify agonists of the transient receptor potential channel N1 (TRPN1). [Related pubchem assays: 1526, 1424, 1448 ]", "type": "functional"}, "[10]": {"test_system": "INS1", "assay": "INS-1E survival protection against cytokine death – cell-based, luminescence, retest, dose response (AID 449756);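 further: cell death triggered by IL-1 beta plus TNF-alpha plus IFN-gamma mixture; protective hits raise ATP signal compared with cytokine alone wells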", "type": "functional", "details": "Rattus norvegicus"}, "[11]": {"assay": "Counterscreen for IDE inhibitors: Luminescence-based cell-based high throughput dose response assay to identify compounds that are cytotoxic to HEK cells. [Related pubchem assays: 434962 (Primary screen (IDE inhibitors in singlicate)), 449730 (Counterscreen (Cytotoxicity in triplicate)), 435028 (Confirmation (IDE inhibitors in triplicate)) …", "type": "functional", "details": "HEK293"}, "[12]": {"target": "T5, Insulin-degrading enzyme (Homo sapiens, UniProt P14735)", "T5 sequence (P14735 whole entry)": "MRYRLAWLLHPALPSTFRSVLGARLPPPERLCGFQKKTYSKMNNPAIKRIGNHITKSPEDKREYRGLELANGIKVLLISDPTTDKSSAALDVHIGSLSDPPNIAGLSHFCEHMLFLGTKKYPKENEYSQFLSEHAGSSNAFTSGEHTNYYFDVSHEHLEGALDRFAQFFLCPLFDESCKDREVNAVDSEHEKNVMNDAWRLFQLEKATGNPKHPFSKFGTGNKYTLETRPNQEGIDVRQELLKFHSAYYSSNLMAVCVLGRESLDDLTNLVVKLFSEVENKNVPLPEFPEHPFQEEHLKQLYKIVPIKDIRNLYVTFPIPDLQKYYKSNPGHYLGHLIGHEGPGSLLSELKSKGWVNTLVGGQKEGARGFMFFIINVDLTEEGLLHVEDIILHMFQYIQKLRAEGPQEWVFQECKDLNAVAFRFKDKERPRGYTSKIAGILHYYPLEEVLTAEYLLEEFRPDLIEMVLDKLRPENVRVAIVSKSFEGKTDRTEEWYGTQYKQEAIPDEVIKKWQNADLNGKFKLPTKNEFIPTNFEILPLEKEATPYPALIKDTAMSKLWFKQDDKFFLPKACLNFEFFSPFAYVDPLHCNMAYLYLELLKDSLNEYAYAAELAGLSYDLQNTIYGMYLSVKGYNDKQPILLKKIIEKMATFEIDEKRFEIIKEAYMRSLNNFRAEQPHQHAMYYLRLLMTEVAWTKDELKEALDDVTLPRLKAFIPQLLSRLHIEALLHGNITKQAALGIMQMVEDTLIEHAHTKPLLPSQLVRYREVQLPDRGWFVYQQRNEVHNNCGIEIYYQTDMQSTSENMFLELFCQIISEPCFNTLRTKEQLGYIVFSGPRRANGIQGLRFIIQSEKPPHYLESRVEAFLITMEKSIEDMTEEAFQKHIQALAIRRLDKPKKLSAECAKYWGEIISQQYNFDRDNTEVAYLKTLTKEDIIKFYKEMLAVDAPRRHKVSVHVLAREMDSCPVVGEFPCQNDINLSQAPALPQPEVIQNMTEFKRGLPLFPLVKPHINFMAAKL", "assay": "Dose Response: Fluorescence polarization-based cell-based high throughput dose response assay for inhibitors of insulin-degrading enzyme (IDE). [Related pubchem assays: 434962 (Primary screen (IDE inhibitors in singlicate)), 449730 (Counterscreen (Cytotoxicity in triplicate)), 435028 (Confirmation (IDE inhibitors in triplicate)), 434984 (Summary …", "type": "functional"}, "[13]": {"target": "Large T antigen (Simian virus 40, UniProt P03070)", "sequence (P03070 whole entry)": "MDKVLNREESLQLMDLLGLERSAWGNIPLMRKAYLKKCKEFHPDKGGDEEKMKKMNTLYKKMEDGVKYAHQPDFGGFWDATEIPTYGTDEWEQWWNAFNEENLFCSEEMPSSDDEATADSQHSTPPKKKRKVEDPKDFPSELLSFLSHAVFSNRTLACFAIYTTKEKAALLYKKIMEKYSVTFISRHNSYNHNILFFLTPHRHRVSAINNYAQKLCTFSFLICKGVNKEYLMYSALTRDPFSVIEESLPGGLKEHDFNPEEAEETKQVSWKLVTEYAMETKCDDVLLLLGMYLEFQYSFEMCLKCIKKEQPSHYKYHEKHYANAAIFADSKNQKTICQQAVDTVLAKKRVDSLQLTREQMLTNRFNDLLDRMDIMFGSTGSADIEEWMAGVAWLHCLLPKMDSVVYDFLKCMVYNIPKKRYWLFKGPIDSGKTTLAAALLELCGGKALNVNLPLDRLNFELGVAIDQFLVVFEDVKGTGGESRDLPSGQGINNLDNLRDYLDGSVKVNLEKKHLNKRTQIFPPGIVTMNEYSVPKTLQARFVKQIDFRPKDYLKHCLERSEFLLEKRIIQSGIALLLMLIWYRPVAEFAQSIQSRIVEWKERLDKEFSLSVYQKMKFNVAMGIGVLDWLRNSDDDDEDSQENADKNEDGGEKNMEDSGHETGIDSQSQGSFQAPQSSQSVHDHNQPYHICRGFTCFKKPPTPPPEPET", "type": "functional, Betapolyomavirus macacae"}, "[14]": {"target": "Induced myeloid leukemia cell differentiation protein Mcl-1 (Homo sapiens, UniProt Q07820)", "sequence (Q07820 whole entry)": "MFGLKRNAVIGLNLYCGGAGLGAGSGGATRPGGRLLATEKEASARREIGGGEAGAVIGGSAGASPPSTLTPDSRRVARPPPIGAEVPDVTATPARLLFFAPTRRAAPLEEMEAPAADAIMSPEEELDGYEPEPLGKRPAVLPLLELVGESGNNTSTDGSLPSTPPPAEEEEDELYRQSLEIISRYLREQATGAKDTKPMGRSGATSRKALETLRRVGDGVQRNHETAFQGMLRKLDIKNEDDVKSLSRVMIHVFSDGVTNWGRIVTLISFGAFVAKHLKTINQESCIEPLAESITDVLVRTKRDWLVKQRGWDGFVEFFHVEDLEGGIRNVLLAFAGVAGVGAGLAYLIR", "type": "functional"}, "[15]": {"target": "Eukaryotic translation initiation factor 4E (Mus musculus, UniProt P63073)", "sequence (P63073 whole entry)": "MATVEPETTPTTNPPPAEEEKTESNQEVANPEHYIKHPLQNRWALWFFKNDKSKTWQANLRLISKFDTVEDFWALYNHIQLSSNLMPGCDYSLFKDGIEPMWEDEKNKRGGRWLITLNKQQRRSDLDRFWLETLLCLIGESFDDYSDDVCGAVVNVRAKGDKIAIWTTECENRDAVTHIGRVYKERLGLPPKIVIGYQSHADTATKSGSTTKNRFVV", "assay": "blockers of eIF4G binding by eIF4E – biochemical, TR-FRET, dose response (AID 855);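 further: potency for disrupting eIF4E binding to eIF4GI seen as loss of FRET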", "type": "functional"}},
  "note": "Active and inactive are the calls of the source.",
  "data": [
    {"smiles": "O=c1c2cc(N3CCOCC3)ccc2[nH]c(=S)n1Cc1ccco1", "values": [
      {"measurement": "IC50", "setting": "[1]", "value": "> 50 µM (not active)"},
      {"measurement": "IC50", "setting": "[2]", "value": "6.02 µM (not active)"}
    ]},
    {"smiles": "COc1ccc(C(=O)C2CCN(CC(=O)Nc3cc(C)cc(C)c3)CC2)cc1", "values": [
      {"measurement": "EC50", "setting": "[3]", "value": "> 50 µM (active)"}
    ]},
    {"smiles": "COc1cc2c(C(=O)NCCCN3CCN(c4cccc(Cl)c4)CC3)cn(C)c(=O)c2cc1OC", "values": [
      {"measurement": "EC50", "setting": "[4]", "value": "> 50 µM (not active)"}
    ]},
    {"smiles": "CCN1C(=O)/C(=C/c2ccoc2)C(=O)NC1=S", "values": [
      {"measurement": "Ki", "setting": "[5]", "value": "56.7 µM (inactive)"}
    ]},
    {"smiles": "CCOc1ccccc1Nc1nc(-c2sc(NC(=O)c3cccc(Cl)c3)nc2C)cs1", "values": [
      {"measurement": "AC50", "setting": "[6]", "value": "5.75 µM (active)"}
    ]},
    {"smiles": "COc1ccc(OC)c(CCNC(=O)c2ccc3c(c2)N(Cc2ccc(F)cc2)CCS3)c1", "values": [
      {"measurement": "AC50", "setting": "[6]", "value": "1.7 µM (active)"}
    ]},
    {"smiles": "CC1CCc2[nH]nc(C(=O)O)c2C1", "note": "(stereo not given)", "values": [
      {"measurement": "IC50", "setting": "[7]", "value": "> 50 µM (not active)"}
    ]},
    {"smiles": "CC1=CC(C)(C)N(C(=O)CSc2nnc(-c3ccc(C)cc3)o2)c2ccc(C)cc21", "values": [
      {"measurement": "EC50", "setting": "[8]", "value": "7.81 µM (active)"},
      {"measurement": "EC50", "setting": "[9]", "value": "> 29.9 µM (not active)"},
      {"measurement": "AC50", "setting": "[10]", "value": "14.8 µM (active)"}
    ]},
    {"smiles": "CCOc1cc(/C=C2/N=C(c3ccc(NC(C)=O)cc3)OC2=O)ccc1OCc1ccccc1", "values": [
      {"measurement": "Ki", "setting": "[5]", "value": "22.9 µM (inactive)"}
    ]},
    {"smiles": "COc1ccc(N2C(=O)CSC2c2cccc(OC)c2OC)cc1", "note": "(stereo not given)", "values": [
      {"measurement": "IC50", "setting": "[7]", "value": "> 50 µM (not active)"}
    ]},
    {"smiles": "COc1ccc(C(=O)c2sc3nc(-c4ccccc4)ccc3c2N)cc1", "values": [
      {"measurement": "IC50", "setting": "[11]", "value": "25.4 µM (not active)"},
      {"measurement": "IC50", "setting": "[12]", "value": "> 55.9 µM (not active)"}
    ]},
    {"smiles": "O=c1/c(=C\\c2cc([N+](=O)[O-])cc([N+](=O)[O-])c2O)sc2nc3ccccc3n12", "values": [
      {"measurement": "IC50", "setting": "[11]", "value": "> 55.7 µM (not active)"},
      {"measurement": "IC50", "setting": "[13]", "value": "52.8 µM (active)"},
      {"measurement": "IC50", "setting": "[12]", "value": "> 55.9 µM (not active)"},
      {"measurement": "IC50", "setting": "[14]", "value": "1.54 µM (active)"},
      {"measurement": "IC50", "setting": "[15]", "value": "50 µM (inactive)"}
    ]}
  ]
}
